According to patent US20260199281A1, “NEW USE OF SIVELESTAT” (SHANGHAI HUILUN PHARMACEUTICAL CO., LTD., priority 2022, published 2026):

Assays:
[1] = test system: carrageenan-induced pain models; experiment: Determination of paw swelling volumes, carrageenan-induced pain models; assay type: in vivo, SD male rats; settings: for Relative value of paw volumes: single dose, mean ± SD
Description: The experimental results were expressed as “mean±standard deviation”. The data of each group were statistically analyzed using the SPSS16.0 software package to compare whether there were statistical differences among the groups. P<0.05 indicated a statistical difference. A total of 72 SD male rats aged 6 to 8 weeks, with body weights of 188-208 g, were divided into 9 groups, with 8 rats in each group. […] Then 20 mL of normal saline was added to the glass bottle. The glass bottle was placed on a magnetic stirrer, and magnetic stirring was performed for 6 hours to obtain a 3% carrageenan solution. The carrageenan solution was stored at 4° C. • 1 Fasting: no • 2 Administration route: IP (intraperitoneal injection) • 3 Administration volume: 5 mL/kg • 4 Administration frequency: single-dose administration • 5 Time of administration: administered immediately after induction Sivelestat sodium: 26 mg of sivelestat sodium (corresponding to a dosage of 10 mg/kg) was weighed. Part of normal saline was added, and sonication and vortexing were performed. The pH was adjusted with […] until a homogeneous solution was obtained, and finally, the volume was made up to 13.0 mL. Experimental samples with other dosages (30 mg/kg, 100 mg/kg) could be prepared according to the specific dosages with reference to a similar method. Parecoxib: 24 mg of parecoxib (corresponding to a dosage of 10 mg/kg) was weighed. Part of normal saline was added, and sonication and vortexing were performed. The pH was adjusted with 10 mol NaOH until a homogeneous solution was obtained, and finally, the volume was made up to 12.0 mL. Experimental samples with other dosages (20 mg/kg) could be prepared according to the specific dosages with reference to a similar method. Samples of other COX-2 inhibitors were prepared with reference to the similar method described above. [table] To measure the paw swelling volumes (paw volumes) of experimental rats, the animals were gently held with one hand, and their hind paws were placed into the instrument used to measure the paw volumes with the other hand. The size of the paw volume was recorded. The measurement was repeated twice, and the mean value was taken as the paw volume of the animals.

[2] = test system: rat models of post-operative pain; experiment: Mechanical hyperalgesia test in rat models of post-operative pain; assay type: in vivo, Male SD rats; settings: used alone, i.p., single dose
Description: Male SD rats were acclimated to the test environment for 3 days before modeling. On the day of modeling, the animals were anesthetized with Zoletil 50+xylazine hydrochloride (20 mg/kg+8 mg/kg, intraperitoneal injection). A longitudinal incision of approximately 1 cm in length was made towards the toes at a position 0.7-0.8 cm from the heel of the left hind paw of the animals. After the skin was incised, the flexor digitorum brevis muscle was lifted, and a longitudinal blunt injury was inflicted. On the first day after the operation, the model animals were randomly divided into 7 groups according to the baseline values of mechanical hyperalgesia.
Two-way analysis of variance with the Bonferroni's multiple comparison test was performed.

[3] = test system: carrageenan-induced pain models; experiment: Determination of mechanical pain thresholds (electronic Von Frey Hairs), carrageenan-induced pain models; assay type: in vivo, SD male rats; settings: for Relative value of Von Frey Hairs: single dose, mean ± SD
Description: The experimental results were expressed as “mean±standard deviation”. The data of each group were statistically analyzed using the SPSS16.0 software package to compare whether there were statistical differences among the groups. P<0.05 indicated a statistical difference. A total of 72 SD male rats aged 6 to 8 weeks, with body weights of 188-208 g, were divided into 9 groups, with 8 rats in each group. […] Then 20 mL of normal saline was added to the glass bottle. The glass bottle was placed on a magnetic stirrer, and magnetic stirring was performed for 6 hours to obtain a 3% carrageenan solution. The carrageenan solution was stored at 4° C. • 1 Fasting: no • 2 Administration route: IP (intraperitoneal injection) • 3 Administration volume: 5 mL/kg • 4 Administration frequency: single-dose administration • 5 Time of administration: administered immediately after induction Sivelestat sodium: 26 mg of sivelestat sodium (corresponding to a dosage of 10 mg/kg) was weighed. Part of normal saline was added, and sonication and vortexing were performed. The pH was adjusted with […] until a homogeneous solution was obtained, and finally, the volume was made up to 13.0 mL. Experimental samples with other dosages (30 mg/kg, 100 mg/kg) could be prepared according to the specific dosages with reference to a similar method. Parecoxib: 24 mg of parecoxib (corresponding to a dosage of 10 mg/kg) was weighed. Part of normal saline was added, and sonication and vortexing were performed. The pH was adjusted with 10 mol NaOH until a homogeneous solution was obtained, and finally, the volume was made up to 12.0 mL. Experimental samples with other dosages (20 mg/kg) could be prepared according to the specific dosages with reference to a similar method. Samples of other COX-2 inhibitors were prepared with reference to the similar method described above. [table] The animals were placed in a specially designed multi-unit metal mesh cage for pain detection, and allowed to acclimate to the environment for 10 minutes. After the grooming and exploratory activities of the animals ceased and the animals adapted to the detection environment, the sole of the hind limb on the side where carrageenan was injected in the rats was stimulated with electronic Von Frey Hairs. […] The value of the Von Frey Hairs at this time, which was the threshold of the mechanical pain response, was recorded with “gram” as the unit of detection. The detection was repeated twice. Then the mean value was taken as the final detection index. The determination of mechanical pain thresholds was performed at a total of 5 time points, including before administration and 1 h, 3 h, 4 h and 6 h after administration.

[4] = test system: carrageenan-induced pain models; experiment: Determination of thermal radiation (thermal pain threshold), carrageenan-induced pain models; assay type: in vivo, SD male rats; settings: for Relative value of thermal radiation: single dose, mean ± SD
Description: The experimental results were expressed as “mean±standard deviation”. The data of each group were statistically analyzed using the SPSS16.0 software package to compare whether there were statistical differences among the groups. P<0.05 indicated a statistical difference. A total of 72 SD male rats aged 6 to 8 weeks, with body weights of 188-208 g, were divided into 9 groups, with 8 rats in each group. […] Then 20 mL of normal saline was added to the glass bottle. The glass bottle was placed on a magnetic stirrer, and magnetic stirring was performed for 6 hours to obtain a 3% carrageenan solution. The carrageenan solution was stored at 4° C. • 1 Fasting: no • 2 Administration route: IP (intraperitoneal injection) • 3 Administration volume: 5 mL/kg • 4 Administration frequency: single-dose administration • 5 Time of administration: administered immediately after induction Sivelestat sodium: 26 mg of sivelestat sodium (corresponding to a dosage of 10 mg/kg) was weighed. Part of normal saline was added, and sonication and vortexing were performed. The pH was adjusted with […] until a homogeneous solution was obtained, and finally, the volume was made up to 13.0 mL. Experimental samples with other dosages (30 mg/kg, 100 mg/kg) could be prepared according to the specific dosages with reference to a similar method. Parecoxib: 24 mg of parecoxib (corresponding to a dosage of 10 mg/kg) was weighed. Part of normal saline was added, and sonication and vortexing were performed. The pH was adjusted with 10 mol NaOH until a homogeneous solution was obtained, and finally, the volume was made up to 12.0 mL. Experimental samples with other dosages (20 mg/kg) could be prepared according to the specific dosages with reference to a similar method. Samples of other COX-2 inhibitors were prepared with reference to the similar method described above. [table] The animals were placed in a transparent plastic box, and could be allowed to acclimatize for 10 minutes before the test. The middle of the plantar surface of the hind limb on the side where carrageenan was injected in the rats was irradiated with a radiant heat light source to determine their thermal pain threshold. The detection was repeated twice. Then the mean value was taken as the final detection index.

[5] = 10 mg/kg intraperitoneal, 1 hour after administration
[6] = 10 mg/kg intraperitoneal, 3 hours after administration
[7] = 10 mg/kg intraperitoneal, 4 hours after administration
[8] = 10 mg/kg intraperitoneal, 6 hours after administration
[9] = 30 mg/kg intraperitoneal, 1 hour after administration
[10] = 30 mg/kg intraperitoneal, 3 hours after administration
[11] = 30 mg/kg intraperitoneal, 4 hours after administration
[12] = 30 mg/kg intraperitoneal, 6 hours after administration
[13] = 100 mg/kg intraperitoneal, 1 hour after administration
[14] = 100 mg/kg intraperitoneal, 3 hours after administration
[15] = 100 mg/kg intraperitoneal, 4 hours after administration
[16] = 100 mg/kg intraperitoneal, 6 hours after administration
[17] = used alone at 10, 30 and 100 mg/kg

CC(C)(C)C(=O)Oc1ccc(S(=O)(=O)Nc2ccccc2C(=O)NCC(=O)O)cc1 [sivelestat sodium]
Relative value of paw volumes [1, 5]: 4.86 ± 19.10% | Relative value of paw volumes [1, 6]: 8.96 ± 13.90% | Relative value of paw volumes [1, 7]: 1.67 ± 15.59% | Relative value of paw volumes [1, 8]: 3.70 ± 14.04% | Relative value of paw volumes [1, 9]: 20.49 ± 41.12% | Relative value of paw volumes [1, 10]: 17.37 ± 17.14% | Relative value of paw volumes [1, 11]: 14.09 ± 18.97% | Relative value of paw volumes [1, 12]: 14.94 ± 18.68% | anti-inflammatory effect (paw volumes) ([1]; 100 mg/kg alone, 6 h after administration): significant anti-inflammatory effect | Relative value of paw volumes [1, 13]: 3.99 ± 24.23% | Relative value of paw volumes [1, 14]: 18.24 ± 11.26% | Relative value of paw volumes [1, 15]: 13.64 ± 15.23% | Relative value of paw volumes [1, 16]: 19.27 ± 11.40 % | anti-inflammatory effect (paw volumes) compared with the model group [1, 17]: a certain anti-inflammatory effect | effect on post-operative pain (mechanical hyperalgesia) [2]: significant effect | Relative value of Von Frey Hairs [3, 5]: 17.1 ± 5.5 % | Relative value of Von Frey Hairs [3, 6]: 15.3 ± 5.9 % | Relative value of Von Frey Hairs [3, 7]: 11.5 ± 6.1 % | Relative value of Von Frey Hairs [3, 8]: 4.8 ± 4.4 % | Relative value of Von Frey Hairs [3, 9]: 18.9 ± 5.9 % | Relative value of Von Frey Hairs [3, 10]: 15.6 ± 7.5 % | Relative value of Von Frey Hairs [3, 11]: 15.2 ± 4.2 % | Relative value of Von Frey Hairs [3, 12]: 4.1 ± 5.0% | Relative value of Von Frey Hairs [3, 13]: 20.4 ± 3.9 % | Relative value of Von Frey Hairs [3, 14]: 18.1 ± 3.7 % | Relative value of Von Frey Hairs [3, 15]: 15.5 ± 4.3 % | Relative value of Von Frey Hairs [3, 16]: 7.9 ± 4.5 % | analgesic efficacy in the mechanical pain threshold test [3, 17]: significant analgesic efficacy | Relative value of thermal radiation [4, 5]: 10.3 ± 28.7% | Relative value of thermal radiation [4, 6]: 19.8 ± 14.0 % | Relative value of thermal radiation [4, 7]: 3.7 ± 5.1% | Relative value of thermal radiation [4, 8]: 4.2 ± 6.2% | Relative value of thermal radiation [4, 9]: 20.9 ± 39.4% | Relative value of thermal radiation [4, 10]: 18.0 ± 21.4% | Relative value of thermal radiation [4, 11]: 4.0 ± 9.3% | Relative value of thermal radiation [4, 12]: 9.2 ± 4.4% | Relative value of thermal radiation [4, 13]: 24.0 ± 41.2% | Relative value of thermal radiation [4, 14]: 22.3 ± 18.0 % | Relative value of thermal radiation [4, 15]: 13.1 ± 11.0% | Relative value of thermal radiation [4, 16]: 5.4 ± 8.1% | analgesic efficacy in the thermal pain threshold test ([4]; used alone at 10 mg/kg and 100 mg/kg, 3 hours after administration): significant analgesic efficacy
